In PMC11111408, “Concurrent inhibition of oncogenic and wild-type RAS-GTP for cancer therapy” (Nature, 2024):

System: PRISM DNA-barcoded human tumour cell lines
Experiment: PRISM pooled cell viability assay;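 for PRISM AUC: 8 threefold dilutions from 10 µM with 5 days of exposure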
Type: cell-based
Set-up: AUC (PRISM viability) / AUC (PRISM): unit not given beside the values
Conditions: for AUC (PRISM viability): WT; for PRISM AUC: KRAS MUT
Experimental: Cells were then lysed in TCL mRNA lysis buffer, and then PCR with reverse transcription was performed. Detection of the barcodes and univariate and multivariate analysis was then performed as previously described. Data analysis is described in the Supplementary Methods. Up-to-date code for our analysis is at the github link: https://github.com/cmap/dockerized_mts.
For every gene with non-silent mutations in at least four cell-lines, we compared the AUC values between cells with and without those mutations using a t-test. This analysis was carried out for: (i) the full dataset; (ii) excluding cell lines with non-silent KRAS mutations; and (iii) excluding cell lines that have either KRAS or NRAS non-silent mutations.

CCn1c(-c2cc(N3CCN(C4CC4)CC3)cnc2[C@H](C)OC)c2c3cc(ccc31)-c1csc(n1)C[C@H](NC(=O)[C@H]1[C@@H]3COC[C@@H]31)C(=O)N1CCC[C@H](N1)C(=O)OCC(C)(C)C2 [RMC-7977]
AUC (PRISM viability) (SCC25_UPPER_AERODIGESTIVE_TRACT): 0.3367 | AUC (PRISM viability) (SCLC21H_LUNG): 0.9496 | AUC (PRISM viability) (SEM_HAEMATOPOIETIC_AND_LYMPHOID_TISSUE): 0.8793 | AUC (PRISM viability) (SF126_CENTRAL_NERVOUS_SYSTEM): 0.7112 | AUC (PRISM viability) (SF295_CENTRAL_NERVOUS_SYSTEM): 0.7908 | AUC (PRISM viability) (SF539_CENTRAL_NERVOUS_SYSTEM): 0.7182 | AUC (PRISM viability) (SH4_SKIN): 0.8584 | PRISM AUC (SH10TC_STOMACH): 0.4138 | PRISM AUC (SHP77_LUNG): 0.4654 | AUC (PRISM viability) (SIMA_AUTONOMIC_GANGLIA): 0.5854 | AUC (PRISM viability) (SKES1_BONE): 0.8807 | AUC (PRISM viability) (SKHEP1_LIVER): 0.7844 | AUC (PRISM viability) (SKLMS1_SOFT_TISSUE): 0.3954 | PRISM AUC (SKLU1_LUNG): 0.1796 | AUC (PRISM viability) (SKMEL3_SKIN): 1 | AUC (PRISM viability) (SKMEL5_SKIN): 0.8492 | AUC (PRISM viability) (SKMEL24_SKIN): 0.8551 | AUC (PRISM viability) (SKMEL28_SKIN): 0.8799 | AUC (PRISM viability) (SKMEL30_SKIN): 0.2141 | AUC (PRISM viability) (SKMES1_LUNG): 0.4907 | AUC (PRISM viability) (SKNAS_AUTONOMIC_GANGLIA): 0.2639 | AUC (PRISM viability) (SKNBE2_AUTONOMIC_GANGLIA): 0.4969 | AUC (PRISM viability) (SKNDZ_AUTONOMIC_GANGLIA): 0.7338 | AUC (PRISM viability) (SKNMC_BONE): 0.8913 | AUC (PRISM viability) (SKNO1_HAEMATOPOIETIC_AND_LYMPHOID_TISSUE): 0.4958 | AUC (PRISM viability) (SKOV3_OVARY): 0.8555 | AUC (PRISM viability) (SKUT1_SOFT_TISSUE): 0.8493 | AUC (PRISM viability) (SNB75_CENTRAL_NERVOUS_SYSTEM): 0.7551 | PRISM AUC (SNGM_ENDOMETRIUM): 0.5073 | PRISM AUC (SNU1_STOMACH): 0.47 | AUC (PRISM viability) (SNU46_UPPER_AERODIGESTIVE_TRACT): 0.6229 | PRISM AUC (SNU61_LARGE_INTESTINE): 0.1577 | AUC (PRISM viability) (SNU182_LIVER): 1 | AUC (PRISM viability) (SNU201_CENTRAL_NERVOUS_SYSTEM): 0.8111 | PRISM AUC (SNU213_PANCREAS): 0.2216 | AUC (PRISM viability) (SNU216_STOMACH): 0.4345 | AUC (PRISM viability) (SNU245_BILIARY_TRACT): 0.5897 | AUC (PRISM viability) (SNU308_BILIARY_TRACT): 0.4973 | AUC (PRISM viability) (SNU398_LIVER): 0.9232 | PRISM AUC (SNU407_LARGE_INTESTINE): 0.42 | PRISM AUC (SNU410_PANCREAS): 0.5771 | AUC (PRISM viability) (SNU423_LIVER): 0.6851 | AUC (PRISM viability) (SNU449_LIVER): 0.7416 | AUC (PRISM viability) (SNU466_CENTRAL_NERVOUS_SYSTEM): 0.3575 | AUC (PRISM viability) (SNU489_CENTRAL_NERVOUS_SYSTEM): 0.8437 | PRISM AUC (SNU601_STOMACH): 0.2276 | AUC (PRISM viability) (SNU685_ENDOMETRIUM): 0.8482 | AUC (PRISM viability) (SNU719_STOMACH): 0.2772 | AUC (PRISM viability) (SNU761_LIVER): 0.9921 | AUC (PRISM viability) (SNU840_OVARY): 0.3829 | PRISM AUC (SNU869_BILIARY_TRACT): 0.3809 | AUC (PRISM viability) (SNU878_LIVER): 0.7757 | AUC (PRISM viability) (SNU886_LIVER): 0.4222 | AUC (PRISM viability) (SNU899_UPPER_AERODIGESTIVE_TRACT): 0.2281 | AUC (PRISM viability) (SNU1076_UPPER_AERODIGESTIVE_TRACT): 0.2341 | AUC (PRISM viability) (SNU1077_ENDOMETRIUM): 0.9228 | AUC (PRISM viability) (SNU1079_BILIARY_TRACT): 0.7613 | AUC (PRISM viability) (SNU1105_CENTRAL_NERVOUS_SYSTEM): 0.4704 | AUC (PRISM viability) (SNU1196_BILIARY_TRACT): 0.9637 | AUC (PRISM viability) (SNU1214_UPPER_AERODIGESTIVE_TRACT): 0.179 | PRISM AUC (SNUC2A_LARGE_INTESTINE): 0.7905 | AUC (PRISM viability) (SNUC4_LARGE_INTESTINE): 0.612 | AUC (PRISM viability) (SQ1_LUNG): 0.3633 | AUC (PRISM viability) (SR786_HAEMATOPOIETIC_AND_LYMPHOID_TISSUE): 0.6127 | PRISM AUC (SUIT2_PANCREAS): 0.4229 | PRISM AUC (SW480_LARGE_INTESTINE): 0.2548 | AUC (PRISM viability) (SW579_THYROID): 0.4828 | PRISM AUC (SW620_LARGE_INTESTINE): 0.1434 | AUC (PRISM viability) (SW780_URINARY_TRACT): 0.559 | PRISM AUC (SW900_LUNG): 0.3401 | AUC (PRISM viability) (SW1088_CENTRAL_NERVOUS_SYSTEM): 0.6279 | AUC (PRISM viability) (SW1271_LUNG): 0.5768 | AUC (PRISM viability) (SW1353_BONE): 0.841 | AUC (PRISM viability) (SW1710_URINARY_TRACT): 0.7469 | AUC (PRISM viability) (SW1783_CENTRAL_NERVOUS_SYSTEM): 0.7461 | PRISM AUC (SW1990_PANCREAS): 0.4703 | PRISM AUC (T3M10_LUNG): 0.7347 | AUC (PRISM viability) (T24_URINARY_TRACT): 0.4656 | AUC (PRISM viability) (T47D_BREAST): 0.8281 | PRISM AUC (T84_LARGE_INTESTINE): 0.5086 | AUC (PRISM viability) (T98G_CENTRAL_NERVOUS_SYSTEM): 0.6265 | AUC (PRISM viability) (TALL1_HAEMATOPOIETIC_AND_LYMPHOID_TISSUE): 0.6203 | AUC (PRISM viability) (TC32_BONE): 0.7163 | AUC (PRISM viability) (TC71_BONE): 0.7602 | PRISM AUC (TCCPAN2_PANCREAS): 0.4522 | AUC (PRISM viability) (TCCSUP_URINARY_TRACT): 0.7623 | AUC (PRISM viability) (TE1_OESOPHAGUS): 0.7271 | AUC (PRISM viability) (TE5_OESOPHAGUS): 0.4124 | AUC (PRISM viability) (TE6_OESOPHAGUS): 0.4273 | AUC (PRISM viability) (TE8_OESOPHAGUS): 0.499 | AUC (PRISM viability) (TE9_OESOPHAGUS): 0.6448 | AUC (PRISM viability) (TE10_OESOPHAGUS): 0.472 | AUC (PRISM viability) (TE11_OESOPHAGUS): 0.5416 | AUC (PRISM viability) (TE14_OESOPHAGUS): 0.4491 | AUC (PRISM viability) (TE15_OESOPHAGUS): 0.2922 | AUC (PRISM viability) (TE617T_SOFT_TISSUE): 0.2711 | AUC (PRISM viability) (TF1_HAEMATOPOIETIC_AND_LYMPHOID_TISSUE): 0.2378 | AUC (PRISM viability) (THP1_HAEMATOPOIETIC_AND_LYMPHOID_TISSUE): 0.3541 | AUC (PRISM viability) (TM31_CENTRAL_NERVOUS_SYSTEM): 0.8811 | PRISM AUC (TOV21G_OVARY): 0.5751 | AUC (PRISM viability) (TOV112D_OVARY): 0.6714 | AUC (PRISM viability) (TT2609C02_THYROID): 0.2965 | AUC (PRISM viability) (TT_OESOPHAGUS): 0.5096 | AUC (PRISM viability) (TT_THYROID): 1 | AUC (PRISM viability) (TUHR4TKB_KIDNEY): 1 | AUC (PRISM viability) (TYKNU_OVARY): 0.2088 | AUC (PRISM viability) (U2OS_BONE): 0.5581 | AUC (PRISM viability) (U87MG_CENTRAL_NERVOUS_SYSTEM): 0.5899 | AUC (PRISM viability) (U118MG_CENTRAL_NERVOUS_SYSTEM): 0.8323 | AUC (PRISM viability) (U178_CENTRAL_NERVOUS_SYSTEM): 0.6826 | AUC (PRISM viability) (U251MG_CENTRAL_NERVOUS_SYSTEM): 0.531 | AUC (PRISM viability) (U343_CENTRAL_NERVOUS_SYSTEM): 0.5615 | AUC (PRISM viability) (U937_HAEMATOPOIETIC_AND_LYMPHOID_TISSUE): 0.5098 | AUC (PRISM viability) (UACC62_SKIN): 0.8484 | AUC (PRISM viability) (UACC257_SKIN): 0.9461 | AUC (PRISM viability) (UMUC1_URINARY_TRACT): 0.3417 | AUC (PRISM viability) (UO31_KIDNEY): 0.7674 | AUC (PRISM viability) (VMCUB1_URINARY_TRACT): 0.3401 | AUC (PRISM viability) (VMRCRCW_KIDNEY): 0.6728 | AUC (PRISM viability) (VMRCRCZ_KIDNEY): 0.8522 | AUC (PRISM viability) (WM88_SKIN): 0.8971 | AUC (PRISM viability) (WM793_SKIN): 0.8157 | AUC (PRISM viability) (WM983B_SKIN): 0.8254 | AUC (PRISM viability) (WM1799_SKIN): 0.8407 | AUC (PRISM viability) (WM2664_SKIN): 1 | AUC (PRISM viability) (WSUDLCL2_HAEMATOPOIETIC_AND_LYMPHOID_TISSUE): 0.6176 | PRISM AUC (YAPC_PANCREAS): 0.2462 | PRISM AUC (YD8_UPPER_AERODIGESTIVE_TRACT): 0.7835 | AUC (PRISM viability) (YD10B_UPPER_AERODIGESTIVE_TRACT): 0.2966 | AUC (PRISM viability) (YD15_SALIVARY_GLAND): 0.5241 | AUC (PRISM viability) (YD38_UPPER_AERODIGESTIVE_TRACT): 0.2157 | AUC (PRISM viability) (YH13_CENTRAL_NERVOUS_SYSTEM): 0.7662 | AUC (PRISM viability) (YKG1_CENTRAL_NERVOUS_SYSTEM): 0.6011 | AUC (PRISM viability) (ZR751_BREAST): 0.8548
